# From patent US20240299416A1, “TREATMENT OF NF-kB-MEDIATED DISEASE” (ReveraGen BioPharma, Inc., priority 2021, published 2024)
# Assays:
# Format in all cases: in vivo, human
# [1] = VBP15-004 height and BMI z-scores, 24 to 48 weeks; conditions: for change in height Z scores: baseline to Week 24
# Description: The second period of 24 weeks, where all participants receive vamorolone treatment on either of the two dose levels, will continue to capture additional longer-term safety and tolerability data.
# Subjects already on vamorolone continued on the allocated dose level. Efficacy at Week 48 was assessed by Time to Stand (TTSTAND) velocity, 6-Minute Walk Test (6MWT), Time to Run/Walk 10 meters (TTRW) velocity, and North Star Ambulatory Assessment (NSAA). […] In contrast, the persistence of effects with vamorolone 2 mg/kg/day was less pronounced for some parameters. The safety profile was consistent for subjects who continued on the same dose of vamorolone throughout the study, with no increase in frequency or severity of adverse events being observed over time. […] In addition, vamorolone treatment at both doses reversed the growth impairment seen during prednisone treatment and was associated with fewer adverse events, including those associated with corticosteroid use.
# [2] = VBP15-002 Phase IIa multiple ascending dose PK and safety
# Description: Vamorolone clinical studies have been conducted in adult male volunteers and boys with DMD, a disorder in which skeletal muscle is in a chronic inflammatory state. Two consecutive open-label dose-ranging studies in 48 DMD patients aged 4 to <7 years (corticosteroid-naïve) were conducted (Phase IIa, VBP15-002; Phase IIa, VBP15-003). Doses were tested over a 24-fold dose range (0.25, 0.75, 2.0, and 6.0 mg/kg/day), with 12 participants per group. The first multiple ascending dose (MAD) cohort trial-tested pharmacokinetics (PK) and safety for 2 weeks of drug dosing followed by a 2-week washout (VBP15-002). […] All DMD participants completed the MAD study and then continued on the same dose for a 24-week dose-finding (efficacy and safety) extension study (VBP15-003).
# Three consecutive clinical trials of vamorolone treatment of DMD were conducted by CINRG (VBP15-002 [NCT02760264]; VBP15-003 [NCT02760277]; VBP15-LTE [NCT03038399]). A total of 48 participants (ages 4 to <7 years) were initially enrolled into VBP15-002, with trial participants completing month 12 of the 24-month VBP15-LTE study.
# VBP15-002 (Phase IIa; two weeks on the drug, two weeks off drug) enrolled 48 corticosteroid-naïve participants with DMD, and all 48 participants completed the study and enrolled into VBP15-003 (Phase IIa extension; 24-week treatment). […]
# [3] = tested on: boys with DMD; assay: VBP15-003/VBP15-LTE motor outcomes over 18 months vs CINRG DNHS; conditions: vs corticosteroid-naïve participants, ANCOVA
# Description: Assessments of efficacy were motor outcomes (primary outcome: time to stand from supine [TTSTAND]; secondary outcomes: time to run/walk 10 meters [TTRW], time to climb four stairs [TTCLIMB], distance covered in 6-minute walk test [6MWT], and the North Star Ambulatory Assessment [NSAA]). 6MWT and NSAA were not assessed in most CINRG DNHS participants and were not compared to vamorolone-treated participants. According to standard operating procedures, clinical evaluators were trained to harmonize the CINRG vamorolone, CINRG DNHS, and CINRG prednisone studies. Reliability of these outcomes (percent coefficient of variation) has been reported for the VBP15-002/VBP15-003 studies. Assessments were done at baseline (VBP15-002 entry), 24 weeks (VBP15-003 last visit), and 18 months (VBP15-LTE midpoint assessment at 12 months).
# Only participants completing VBP15-002 and VBP15-003 were eligible to enroll in VBP15-LTE. […]
# Statistical analyses were done on paired longitudinal outcome data using an analysis of covariance (ANCOVA) approach with change from baseline (VBP15-002) to month 18 (midpoint of VBP15-LTE). […] For the vamorolone-treated participants, age was calculated as (date of informed consent minus birthdate)/365.25. For the DNHS participants, age was calculated as (date of baseline visit used minus birthdate)/365.25. […]
compound,measurement,setting,value
"C[C@@H]1C[C@H]2[C@@H]3CCC4=CC(=O)C=C[C@]4(C)C3=CC[C@]2(C)[C@@]1(O)C(=O)CO [Vamorolone, 17α,21-dihydroxy-16α-methylpregna-1,4,9(11)-triene-3,20-dione]","height (z-score), absolute value, Mean","[1]; PDN/VAM 6 mg, Week 48",−0.12
same,BMI mean z-score,[1]; Treatment Period 2 after switch from prednisone to vamorolone 6 mg/kg/day,1.32
same,growth velocity,"[1]; both vamorolone doses, 48 weeks",preserved
same,BMI mean z-score,"[1]; continuing on 2 mg/kg/day, Week 24",1.10
same,BMI mean z-score,"[1]; continuing on 2 mg/kg/day, Week 48",0.91
same,BMI mean z-score,"[1]; continuing on 6 mg/kg/day, Week 24",1.40
same,BMI mean z-score,"[1]; continuing on 6 mg/kg/day, Week 48",1.32
same,change in height Z scores,[1]; vamorolone 2.0 mg/kg/day,overall stable height change Z scores
same,change in height Z scores,[1]; vamorolone 6.0 mg/kg/day,increased growth rate
same,dose-limiting toxicities,"[2]; 2 weeks dosing, 0.25-6.0 mg/kg/day",no dose-limiting toxicities
same,drug accumulation,[2]; day 1 vs day 14,no drug accumulation
same,"TTCLIMB, LS mean difference",[3],-0.34 s
same,"TTRW, LS mean difference",[3],-0.84 s
